Structures are written as SMILES.

For one series, the system named is M. tuberculosis H37Rv. The series can be described thus: MIC determination, resazurin microplate assay. The series is classed as cell-based. The conditions noted are these: Mycobacterium tuberculosis, 120 h, five days, range 100-0.78 µM. On the technique in general: Alamar Blue is a resazurin reagent that responds to reducing activity.
For series [1], the system named is methicillin-resistant Staphylococcus aureus. The series can be described thus: MIC quantified via the BacTiter-Glo assay. Format: cell-based. The note with it: methicillin-resistant strain; 24 h. On the procedure: (§1) The MICs of compounds according to formulas (2), (3), (4), (7), (11), (12) and (18) were additionally quantified via the BacTiter-Glo™ assay (Promega, Madison, WI, USA). Briefly, after an incubation time of 24 h, each well was resuspended by pipetting, and 50 µL aliquots were transferred into an opaque-walled multiwell plate. Additionally, control wells containing medium without cells to determine background luminescence were prepared. 50 µL BacTiter-Glo™ reagent were added to each well. Contents were mixed and incubated for five minutes at room temperature. Luminescence was measured using a microplate reader. Growth was calculated relative to the background luminescence (0% growth) and a compound-free DMSO control (100% growth).

Series [2] deals with methicillin-sensitive Staphylococcus aureus. The series can be described thus: MIC quantified via the BacTiter-Glo assay. The conditions noted are these: methicillin-sensitive strain; 24 h. Format: cell-based. Here is the method: as §1
Series [3] relates to human fetal lung fibroblast cell line MRC-5. Briefly: Cytotoxicity, resazurin assay. Format: cell-based. The note with it: MRC-5 cells, 48 h. Here is the method:
(§2) The cytotoxicity of the compounds according to formulas (2), (3) and (4) and according to formulas (7), (11), (12) and (18) was determined in vitro using the human monocyte cell line THP-1 (Deutsche Sammlung von Mikroorganismen und Zellkulturen GmbH) and the human fetal lung fibroblast cell line MRC-5 (American Type Culture Collection).
(§3) THP-1 cells were cultured in RPMI 1640 medium containing 10% (v/v) fetal bovine serum (FBS), while MRC-5 cells were incubated in Dulbecco's Modified Eagles Medium (DMEM) containing 10% (v/v) FBS both at 37°C in a humidified atmosphere of 5% CO2. […] Cells treated with DMSO in a final concentration of 1% (v/v) served as DMSO toxicity controls. After an incubation time of 48 h, 10 µL resazurin solution (100 µg/mL) were added per well and incubated for further 3 h at 37°C in a humidified atmosphere of 5% CO2. Fluorescence was quantified using a microplate reader (excitation 540 nm, emission 590 nm). Growth was calculated relative to non-inoculated (i.e. cell-free) (0% growth) and untreated (100% growth) controls in triplicate experiments, respectively. For determination of the therapeutic index of the tested substances, the selectivity index (SI) was determined by the quotient of cytotoxic concentration and MIC. Compounds with SI ≥ 10 were characterized in further experiments.

In series [4] the test system is human monocyte cell line THP-1. Briefly: Cytotoxicity, resazurin assay. The series is classed as cell-based. The conditions noted are these: THP-1 cells, 48 h. On the procedure: as §2, §3
Series [5] has as its system Staphylococcus aureus MRSA strain ATCC 700699. Briefly: Time-kill curves in vitro (killing kinetics). Format: cell-based. The conditions noted are these: for bacteria amount: after 6 h at five-fold MIC, inoculum 10^6 CFU/mL; for killing effect: five-fold MIC.
In series [6] the test system is methicillin-resistant S. aureus (MRSA) strain ATCC 700699. The series can be described thus: Frequency of spontaneous resistant mutants on compound-containing agar. Format: cell-based, Staphylococcus aureus. The conditions noted are these: agar with 3- and 5-fold MIC, 72 h, 37°C.
Another series deals with resistant MRSA mutants. Briefly: Level of resistance of isolated resistant mutants (dose-response). Format: cell-based, Staphylococcus aureus.
In a further series the test system is S. aureus ATCC 25923. The series can be described thus: MIC by broth microdilution method (CLSI). The conditions noted are these: Staphylococcus aureus, ATCC25923, 24 h.
The subject of the next series is MRSA ATCC 700699. The series can be described thus: MIC by broth microdilution method (CLSI). The note with it: for MIC: Staphylococcus aureus, 24 h. (In general: Dilution methods test growth across graded concentrations, often in twofold steps.)
A further series deals with E. faecalis ATCC 29212. Briefly: MIC by broth microdilution method (CLSI). The conditions noted are these: Enterococcus faecalis, ATCC29212, 24 h.
For another series, the system named is E. faecalis ATCC 51299. Briefly: MIC by broth microdilution method (CLSI). The conditions noted are these: Enterococcus faecalis, ATCC51299, 24 h.
Another series concerns E. faecium ATCC 35667. Briefly: MIC by broth microdilution method (CLSI). The note with it: Enterococcus faecium, ATCC35667, 24 h.
Series [7] relates to VR E. faecium ATCC 700221. The series can be described thus: MIC by broth microdilution method (CLSI). The note with it: Enterococcus faecium, ATCC700221, 24 h.
Protocol: (§4) The compounds were tested for their antibacterial activities against the pathogenic nosocomial strains of Staphylococcus aureus, Enterococcus faecalis Enterococcus faecium, Acinetobacter baumannii. The minimal inhibitory concentration (MIC) was determined by the broth microdilution method according to the recommendations of the Clinical and Laboratory Standards Institute (CLSI) (CLSI M7-A9, 2012). For preparation of the inoculum the growth method was used. Bacterial cells were grown aerobically in Muller Hinton (MH) medium at 37°C and 180 rpm. A preculture was grown until log phase (OD600 nm ∼ 0.5) and then seeded at 5 x 10^4 bacteria/well in a total volume of 100 µL in 96 well round bottom microtiter plates and incubated with serially diluted test substances at a concentration range of 100-0.78 µM. The compounds were screened in two-fold serial dilution. Microplates were incubated aerobically at 37°C for 24 h. MICs were determined by identifying the minimum concentration of the compounds that led to complete inhibition of visual growth of the bacteria.
Series [8] relates to Methicillin resistant S. aureus (MRSA; ATCC 700699). The series can be described thus: Resistance development during time-kill kinetics. Format: cell-based, Staphylococcus aureus. The note with it: after 6 and 24 h of incubation, plated on agar with 5x MIC. On the procedure: Additionally, the resistance rate of the cultures was determined after 6 and 24 h of incubation. For this, 20 µL of the cultures were plated on 1 mL MH agar containing the five-fold MIC of the compounds (for the compound according to formula (2) and (4): 2 µM, for the compound according to formula (3): 8 µM). After an incubation time of 24 h at 37°C, the colonies were counted. The resistance rate was determined as quotient of the number of resistant colonies on compound containing agar and the total amount of viable bacteria at the corresponding time points.
Two independent cultures C1 and C2 were tested for each attempt. Compounds were tested at 5x MIC resulting in 0.02-0.08% DMSO final concentration. In an independent experiment, medium was replaced and compounds were freshly added after 6 h, denoted "freshly added" in the Figure. 20 µL of different dilution of the cultures after either 6 or 24 h of incubation were plated out on MH agar containing either no antibiotics, which is denoted (*) or the compounds of formulas (2) and (3) at 5x MIC, respectively.

Protocol for E. faecalis ATCC 29212: as §4
Protocol for E. faecalis ATCC 51299: as §4
Protocol for E. faecium ATCC 35667: as §4
Protocol for MRSA ATCC 700699: as §4
Protocol for S. aureus ATCC 25923: as §4

Turning to `Clc1ccc2[nH]cc(-c3cnc(-c4c[nH]c5ccc(Cl)cc45)nc3)c2c1` [formula (4), 3,3'-(pyrimidine-2,5-diyl)bis(5-chloro-1H-indole)], the MIC is 50 µM with M. tuberculosis H37Rv; 6.25 µM against S. aureus ATCC 25923; 0.39 µM in the series with MRSA ATCC 700699; 3.12 µM in the series on E. faecalis ATCC 29212; 12.5 µM against E. faecalis ATCC 51299; 1.56 µM in the series with E. faecium ATCC 35667. Besides, it took 1.56 µM to inhibit growth in series [7] (MIC). In addition, the “inhibition of Staphylococcus aureus (BacTiter-Glo)” value (shortened to “inhibition of Staphylococcus aureus”) in series [1] and in [2] was “effectively inhibited” throughout. For the same compound, the “cytotoxic (inhibitory) concentration” value in series [3] and in [4] was greater than 12.5 µM in each case. Besides, the bacteria amount in series [5] is reported as < 10^1 CFU/mL. For the same compound, the “amount of surviving bacteria” value in series [5] (after 24 h at five-fold MIC, limit of detection 10^1) was < 10^1 CFU/mL. Also, the killing effect entry in [5] is recorded as “strong bactericidal killing effect”. Also, in series [6], the “frequency of spontaneous resistant mutants” value was 5×10^-5. Further, the “MIC for the mutants relative to the parent MRSA strain” value with resistant MRSA mutants (mutants 9-RM, 1-RM, 9-RM-5x versus MRSA WT) worked out at 8 fold. In the series with resistant MRSA mutants (two tested clones (1-RM)), the “resistance of clones resistant against formula (2) towards the tested compound” value is “showed cross-resistance”.

In the case of `Clc1ccc2[nH]cc(-c3cnc(-c4c[nH]c5ccc(Cl)cc45)cn3)c2c1` [formula (2), 2,5-bis(5-chloro-1H-indole-3-yl)pyrazine], the minimal inhibitory concentration (MIC) with M. tuberculosis H37Rv was greater than 100 µM; against S. aureus ATCC 25923, greater than 100 µM; against MRSA ATCC 700699 it was 0.39 µM; against E. faecalis ATCC 29212 it was greater than 100 µM; in the series with E. faecalis ATCC 51299 it was greater than 100 µM; in the series with E. faecium ATCC 35667, greater than 100 µM. Moreover, in [7], the MIC was greater than 100 µM. Further, the “inhibition of Staphylococcus aureus” value in series [1] and in [2] was “effectively inhibited” each time. Moreover, the “cytotoxic (inhibitory) concentration” value in series [3] and in [4] was 12.5 µM in each case. For the same compound, the bacteria amount in series [5] is reported as 10^4 CFU/mL. The “viability of the culture” value in [5] (compound freshly added to washed cells after 6 h, initial further decrease) is recorded as 10^2 CFU/mL. Moreover, in series [5], the killing effect result is on record as “strong bactericidal killing effect”. Moreover, the “level of resistance in treated cultures” value in series [8] is “no significant level of resistance was detectable”. The “frequency of spontaneous resistant mutants” value in [6] is 5×10^-7. The “concentrations at which a decreased inhibitory effect could be observed” value in the series on MRSA ATCC 700699 (paradoxical effect, assumed aggregation and precipitation) is given as no less than 3.125 µM.

As to `Brc1ccc2[nH]cc(-c3cnc(-c4c[nH]c5ccc(Br)cc45)cn3)c2c1` [formula (3), 2,5-bis(5-bromo-1H-indole-3-yl)pyrazine], the MIC in the series with M. tuberculosis H37Rv is greater than 100 µM; in the series on S. aureus ATCC 25923, 1.56 µM; in the series with MRSA ATCC 700699, 1.56 µM; with E. faecalis ATCC 29212 it was greater than 100 µM; in the series on E. faecalis ATCC 51299, greater than 100 µM; in the series on E. faecium ATCC 35667, greater than 100 µM. The same compound yielded an MIC in series [7] greater than 100 µM. In addition, the “inhibition of Staphylococcus aureus” value in series [1] and in [2] was “effectively inhibited” in each case. Further, the “cytotoxic (inhibitory) concentration” value in series [3] and in series [4] was 12.5 µM throughout. In series [5], the bacteria amount was 10^2 CFU/mL. In series [5], the killing effect result is reported as “strong bactericidal killing effect”. Moreover, the “level of resistance in treated cultures” value in [8] is recorded as “no significant level of resistance was detectable”.

One may read the MIC as the least concentration at which growth counts as inhibited.

Source of the values: patent EP3301096A1, “BIS-INDOLE DERIVATIVES FOR USE IN THE TREATMENT OF BACTERIAL INFECTIONS” (Heinrich Heine Universität Düsseldorf, priority 2016, dated 2018).
